US10059733B2 (NUCORION PHARMACEUTICALS, INC., priority 2014, dated 2018)
Read-outs that look alike come from different tables or passages of the source.

Assays:
Huh7 = assay: TC50 assay with human cancer cell lines, 96 h: Huh7; type: cell-based
Method: (§6) Huh7 cells were maintained at 37° C. in a humidified atmosphere at 5% CO2 in DMEM containing 10% FBS. […] The cells were then treated with each compound at concentrations ranging from 500 μM to 0 μM in triplicate in DMEM media containing 2% FBS and 0.5% DMSO and without phenol red. After 48 h of treatment at 37° C., the relative number of living cells in each well was determined by using the CellTiter 96 system (Promega) according to the manufacturer's instructions. The 3-(4,5-dimethylthiazol-2-yl)-5-(3-carboxymethoxyphenyl)-2-(4-sulfophenyl)-2H-tetrazolium (MTS) and phenazine methosulfate (PMS) reagents were added to each well of the 96-well plate and the plate was incubated at 37° C. for approximately 2 h. The absorbance at 490 nm and 650 nm in each well was then determined by using a Flexstation 3 microplate reader (Molecular Dynamics). The absorbance determined at 650 nm was then subtracted from the absorbance determined at 490 nm to correct for light scattering. The corrected absorbance values representing the relative number of live cells in each condition were then plotted as a function of compound concentration, and the data were then fit to the following sigmoidal Emax equation by using Kaleidagraph: y=(Emax*x^Slope)/(TC50^Slope+x^Slope) where y is the relative corrected absorbance value, Emax is the maximum relative inhibition, x is the compound concentration, TC50 is the concentration of the compound at which the total cell population is reduced by 50%, and Slope is the slope of the curve.
(§7) Huh7, HEPG2, HEK293, MCF-7 and BxPC3 cell lines were maintained at 37° C. in a humidified atmosphere at 5% CO2 in DMEM containing 10% FBS. […] The cells were then treated with each compound at concentrations ranging from 500 μM to 0 μM in triplicate in DMEM media containing 2% FBS and 0.5% DMSO and without phenol red.

RPK9 cells = assay: TC50 assay in gemcitabine resistant (dCK deficient) RPK9 cells, 48 h; details: read-out: TC50 (μM) in RPK9 cells at 48 hr
Method: (§1) Huh7 cells were maintained at 37° C. in a humidified atmosphere at 5% CO2 in DMEM containing 10% FBS. […] The cells were then treated with each compound at concentrations ranging from 500 μM to 0 μM in triplicate in DMEM media containing 2% FBS and 0.5% DMSO and without phenol red. After 48 h of treatment at 37° C., the relative number of living cells in each well was determined by using the CellTiter 96 system (Promega) according to the manufacturer's instructions. The 3-(4,5-dimethylthiazol-2-yl)-5-(3-carboxymethoxyphenyl)-2-(4-sulfophenyl)-2H-tetrazolium (MTS) and phenazine methosulfate (PMS) reagents were added to each well of the 96-well plate and the plate was incubated at 37° C. for approximately 2 h. The absorbance at 490 nm and 650 nm in each well was then determined by using a Flexstation 3 microplate reader ([…]). The absorbance determined at 650 nm was then subtracted from the absorbance determined at 490 nm to correct for light scattering. The corrected absorbance values representing the relative number of live cells in each condition were then plotted as a function of compound concentration, and the data were then fit to the following sigmoidal Emax equation by using Kaleidagraph: y=(Emax*x^Slope)/(TC50^Slope+x^Slope) where y is the relative corrected absorbance value, Emax is the maximum relative inhibition, x is the compound concentration, TC50 is the concentration of the compound at which the total cell population is reduced by 50%, and Slope is the slope of the curve.
(§2) PK9 and RPK9 cells were maintained at 37° C. in a humidified atmosphere at 5% CO2 in Roswell Park Memorial Institute (RPMI) media containing 10% FBS. […] The cells were then treated with each compound at concentrations ranging from […] to 0 μM in triplicate in RPMI media containing 2% FBS and 0.5% DMSO and without phenol red. […] The RPK9 cells were derived from the parental PK9 cell line, and are deficient for dCK activity due to the partial deletion of the dCK gene.

MCF-7 = assay: TC50 assay with human cancer cell lines, 96 h: MCF-7; type: cell-based
Method: as §6, §7

PK9 cells [1] = assay: TC50 assay in PK9 cells, 48 h; details: Homo sapiens, PK9, 48 h, read-out: TC50 (μM) in PK9 cells at 48 hr
Method: as §1, §2

HEK293 = assay: TC50 assay with human cancer cell lines, 96 h: HEK293; type: cell-based
Method: as §6, §7

HCV luciferase replicon = assay: IC50 assay: inhibition of the HCV luciferase replicon in Huh7 cells; type: cell-based; details: for IC50: Hepatitis C virus; for Therapeutic Index (TC50/IC50): TC50 in Huh7 / IC50 HCV replicon, 48 h
Method: After 48 h of treatment at 37° C., the media in each well was removed, the cells were gently washed once with phosphate buffered saline (PBS) and subsequently lysed by the addition of Glo Lysis Buffer (Promega). After a 15 min incubation at room temperature to allow for complete cell lysis, Bright-Glo luciferase reagent (Promega) was added to each well and the relative luciferase activity in each well was determined by using a Glowmax 96 microplate luminometer (Promega).
IC50 values determined using the above methods for inhibition of the HCV luciferase replicon in Huh7 cells are set forth in Table 1.
All compounds were purified by HPLC.

HEPG2 = assay: TC50 assay with human cancer cell lines, 96 h: HEPG2; type: cell-based
Method: as §6, §7

[2] = TC50 assay in Huh7 cells, 48 h (CellTiter 96); details: human
Method: as §1
(§3) The data in Table 1 were determined for cells exposed to drug for 48 h. The IC50 is the concentration of each compound necessary to inhibit the replication of the HCV luciferase replicon to 50%. “TC50,” refers to toxic concentration necessary to reduce the cell population by 50%. All compounds were purified by HPLC.

BxPC3 = assay: TC50 assay with human cancer cell lines, 96 h: BxPC3; type: cell-based
Method: as §6, §7

PK9 cells [3] = assay: Cell transport: cytotoxicity in PK9 cells with or without ENT1 inhibitor NBTI; details: Homo sapiens, PK9, 48 h
Method: as §1
(§4) To this end, Huh7 cells or PK9 cells were seeded in 96-well plates at a density of 5,000 cells/well or 2,500 cells/well, respectively, and the plates were incubated at 37° C. for 24 h to allow for cell attachment. The media was then removed from the plates and replaced with media containing 2% FBS, 0.5% DMSO and 10 μM NBTI. […] Subsequently, the cells were treated with each compound at final concentrations ranging from 500 μM to 0 μM in triplicate in media containing 2% FBS, 0.5% DMSO and 10 μM NBTI. […] The TC50 values of each compound in the presence or absence of the ENT1 inhibitor were then compared.

Huh7 cells [4] = assay: Cell transport: cytotoxicity in Huh7 cells with or without ENT1 inhibitor NBTI; details: Homo sapiens, Huh-7, 48 h
Method: as §1, §4

genotype 1a HCV = assay: Oral administration to HCV-infected chimpanzees, viral load (genotype 1a); type: in vivo, chimpanzee; details: Chimpanzee III
Method: (§5) Via oral gavage, two HCV-infected chimpanzees I (male, 56.49 kg and 11 years old; genotype 1b HCV) and II (male, 61.91 kg and 34 years old; genotype 1a HCV) each received a single dosage of 200 mg of Compound 1 in Formulation I while the HCV-infected chimpanzee III (male, 56.19 kg and 18 years old; genotype 1a HCV) was administered a single dosage of 260 mg of the non-phosphorylated analog of Compound 1 (Table 1) in Formulation I. After 12 hours, the HCV viral titer decreased from 24,100 to 10,200 IU/ml (or 58% drop) in Chimpanzee I, from 38,500 to 27,000 IU/ml (or 30% drop) in Chimpanzee II, and from 154,000 to 142,000 IU/ml (or 8% drop) in Chimpanzee III. […] All animals were fasted overnight prior to dosing and a minimum of 2 hours prior to scheduled blood sample collections. Viral load determinations were performed on plasma samples using the HCV TaqMan assay (COBAS® AmpliPrep/COBAS® TaqMan® HCV Test, Version 2, Test Code 1220) for quantitative analysis. […] There were no adverse effects, illness, nor distress seen with the three chimpanzees during the study requiring veterinarian intervention.

[5] = Tolerability of single oral dosage in HCV-infected chimpanzees; type: in vivo, chimpanzee; details: single oral dosage 260 mg
Method: as §5

Huh7 cells [6] = assay: TC50 assay in Huh7 cells, 48 h (CellTiter 96); details: read-out: TC50; Huh7 cells, 48 h exposure
Method: as §1, §3

[7] = Huh-7, 96 h of treatment, read-out: TC50 Huh7
[8] = read-out: TC50 (μM) in PK9 cells at 48 h Without NBTI
[9] = MCF7, 96 h of treatment, read-out: TC50 MCF-7
[10] = HEK293, 96 h of treatment, read-out: TC50 HEK293
[11] = Huh-7, Huh7 cells containing HCV luciferase replicon, 48 h exposure, read-out: IC50
[12] = HepG2, 96 h of treatment, read-out: TC50 HEPG2
[13] = BXPC-3, 96 h of treatment, read-out: TC50 BxPC3

CC(C)OC(=O)[C@H](C)N[P@](=O)(OC[C@H]1O[C@@H](n2ccc(NC(=O)c3ccc4c(c3)OCO4)nc2=O)C(F)(F)C1O)Oc1ccccc1 (stereo in doubt) [Compound 4]
CC50 (Huh7; Huh-7, 96 h, read-out: TC50 Huh7 (μM)): 5.5 µM
CC50 (RPK9 cells): 20.3 ± 3.9 µM
CC50 (MCF-7; MCF7, 96 h, read-out: TC50 MCF-7 (μM)): 1.93 µM
CC50 (PK9 cells [1]): 16 ± 4.8 µM
CC50 (HEK293; HEK293, 96 h, read-out: TC50 HEK293 (μM)): 2.7 µM
IC50 (HCV luciferase replicon; Huh-7, 48 h): 309 ± 45 nM
Therapeutic Index (TC50/IC50) (HCV luciferase replicon): 134
CC50 (HEPG2; HepG2, 96 h, read-out: TC50 HEPG2 (μM)): 3.22 µM
CC50 at 48 h [2]: 41.5 ± 5.6 µM
CC50 (BxPC3; BXPC-3, 96 h, read-out: TC50 BxPC3 (μM)): 4.05 µM

Nc1ccn([C@@H]2O[C@H](CO)[C@@H](O)C2(F)F)c(=O)n1 [Gemcitabine, 2′,2′-difluorodeoxycytidine, reference compound]
CC50 (Huh7; [7]): 3.41 ± 1.36 µM
CC50 (PK9 cells [3]; [8]): 0.095 µM
CC50 (RPK9 cells): > 500 µM
CC50 (MCF-7; [9]): 0.067 ± 0.014 µM
CC50 (PK9 cells [1]): 0.095 ± 0.035 µM
CC50 (HEK293; [10]): 0.56 ± 0.13 µM
IC50 (HCV luciferase replicon; [11]): 58 ± 6 nM
CC50 (HEPG2; [12]): 0.311 ± 0.055 µM
CC50 (BxPC3; [13]): 0.0029 ± 0.003 µM

CCCC(CCC)C(=O)Nc1ccn(C2O[C@H](CO)[C@@H](O)C2(F)F)c(=O)n1 (stereo partly shown) [Non-phosphorylated analog of Compound 1]
CC50 (Huh7; [7]): 3.89 ± 0.68 µM
CC50 (PK9 cells [3]; read-out: TC50 (μM) in PK9 cells at 48 h With NBTI): 6.6 µM
CC50 (PK9 cells [3]; [8]): 1.27 µM
CC50 (RPK9 cells): > 500 µM
CC50 (MCF-7; [9]): 9.06 ± 1.95 µM
CC50 (PK9 cells [1]): 1.27 ± 0.09 µM
CC50 (HEK293; [10]): 15.1 ± 1.77 µM
IC50 (HCV luciferase replicon; [11]): 451 ± 79 nM
Therapeutic Index (TC50/IC50) (HCV luciferase replicon): 850
CC50 (HEPG2; [12]): 4.32 ± 0.34 µM
CC50 (Huh7 cells [4]; read-out: TC50 (μM) in Huh7 cells at 48 h With NBTI): 260 µM
CC50 (Huh7 cells [4]; read-out: TC50 (μM) in Huh7 cells at 48 h Without NBTI): 383 µM
drop of HCV viral titer after 12 hours (genotype 1a HCV; single oral dosage 260 mg): 8%
HCV viral titer after 12 hours (genotype 1a HCV; single oral dosage 260 mg in Formulation I, titer before 154,000 IU/ml): 142,000 IU/ml
tolerability [5]: well tolerated
CC50 at 48 h ([2]; Huh7 cells): 383 ± 51 µM
CC50 (BxPC3; [13]): 1.02 ± 0.15 µM

COc1cc(C(=O)Nc2ccn([C@@H]3O[C@H](CO)[C@@H](O)C3(F)F)c(=O)n2)cc(OC)c1OC [Non-phosphorylated analog of Compound 3, N-(1-((2R,4R,5R)-3,3-difluoro-4-hydroxy-5-(hydroxymethyl)tetrahydrofuran-2-yl)-2-oxo-1,2-dihydropyrimidin-4-yl)-3,4,5-trimethoxybenzamide]
CC50 (Huh7; [7]): 5.05 µM
CC50 (RPK9 cells): > 500 µM
CC50 (MCF-7; [9]): 0.566 µM
CC50 (PK9 cells [1]): 1.69 ± 0.1 µM
CC50 (HEK293; [10]): 1.28 µM
IC50 (HCV luciferase replicon; [11]): 49.3 ± 8.8 nM
Therapeutic Index (TC50/IC50) (HCV luciferase replicon): 10040
CC50 (HEPG2; [12]): 1.67 µM
CC50 (Huh7 cells [6]): 495 ± 97 µM
CC50 (BxPC3; [13]): 1.83 µM
